Where two headings read alike, the source gives them in different places. Where a SMILES comes first, the peptide text is derived from it. Bridges are numbered along the chain shown (N, C = ends). [ ]: non-standard residue; d: D form. The star is where a group is joined. hPhe(3-Cl-4-CF3) = N[C@@H](CCc1ccc(C(F)(F)F)c(Cl)c1)C(=O)O; NPrPhe(4-CF3) = CCCN[C@@H](Cc1ccc(C(F)(F)F)cc1)C(=O)O; NEtPhe(4-CF3) = CCN[C@@H](Cc1ccc(C(F)(F)F)cc1)C(=O)O; hPhe(3,4-Cl2) = N[C@@H](CCc1ccc(Cl)c(Cl)c1)C(=O)O; Pip(4,4-F2) = O=C(O)[C@@H]1CC(F)(F)CCN1; NMeGly(cPent) = CN[C@H](C(=O)O)C1CCCC1; Pro(4,4-F2) = O=C(O)[C@@H]1CC(F)(F)CN1; NMeD = CN[C@@H](CC(=O)O)C(=O)O; NMeL = CN[C@@H](CC(C)C)C(=O)O; Morpholide = C1CN(*)CCO1; Ac5c = NC1(C(=O)O)CCCC1; Aze = O=C(O)[C@@H]1CCN1; Ac4c = NC1(C(=O)O)CCC1; Sar = CNCC(=O)O
Assays:
[1] = target: GDP-bound NRAS wild-type protein (Homo sapiens, UniProt P01111); test: Binding to NRAS by surface plasmon resonance (SPR), Single Cycle Kinetics; details: for NRAS/KRAS (ratio of KD value with respect to GDP-bound NRAS wild-type protein to KD value with respect to KRAS): SPR KD ratio NRAS/KRAS, class symbols
[2] = target: GDP-bound HRAS wild-type protein (Homo sapiens, UniProt P01112); test: Binding to HRAS by surface plasmon resonance (SPR), Single Cycle Kinetics; details: for HRAS/KRAS (ratio of KD value with respect to GDP-bound HRAS wild-type protein to KD value with respect to KRAS): SPR KD ratio HRAS/KRAS, class symbols
[3] = target: GDP-bound KRAS wild-type protein (Homo sapiens, UniProt P01116); test: Binding to KRAS by surface plasmon resonance (SPR), Single Cycle Kinetics; details: GDP-bound KRAS wild-type protein, read-out: KRAS KD
[4] = SPR, GDP-bound NRAS wild-type protein vs GDP-bound KRAS wild-type protein
[5] = SPR, GDP-bound HRAS wild-type protein vs GDP-bound KRAS wild-type protein
[6] = SPR Single Cycle Kinetics, 1:1 binding model

Sequence of GDP-bound KRAS wild-type protein (P01116 whole entry): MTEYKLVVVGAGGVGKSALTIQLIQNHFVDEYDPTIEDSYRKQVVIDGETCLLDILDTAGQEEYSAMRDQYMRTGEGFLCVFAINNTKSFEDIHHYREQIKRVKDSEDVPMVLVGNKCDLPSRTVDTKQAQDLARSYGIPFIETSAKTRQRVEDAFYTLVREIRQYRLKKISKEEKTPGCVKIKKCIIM
Sequence of GDP-bound HRAS wild-type protein (P01112 whole entry): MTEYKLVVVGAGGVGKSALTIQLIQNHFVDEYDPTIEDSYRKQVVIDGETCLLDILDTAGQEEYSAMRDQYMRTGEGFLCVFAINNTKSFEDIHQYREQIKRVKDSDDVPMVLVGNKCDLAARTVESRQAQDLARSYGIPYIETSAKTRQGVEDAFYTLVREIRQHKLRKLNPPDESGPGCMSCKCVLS
Sequence of GDP-bound NRAS wild-type protein (P01111 whole entry): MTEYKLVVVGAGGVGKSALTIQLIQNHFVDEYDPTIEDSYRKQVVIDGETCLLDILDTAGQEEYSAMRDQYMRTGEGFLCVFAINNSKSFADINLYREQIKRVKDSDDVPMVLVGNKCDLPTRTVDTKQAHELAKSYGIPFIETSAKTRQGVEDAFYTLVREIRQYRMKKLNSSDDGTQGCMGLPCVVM

Kd ([3]; SPR, Single Cycle Kinetics)	Kd [3, 6]	Structure (SMILES)	NRAS/KRAS (ratio of KD value for NRAS to KD value for KRAS) [1, 4]	HRAS/KRAS (ratio of KD value for HRAS to KD value for KRAS) [2, 5]	NRAS/KRAS (ratio of KD value with respect to NRAS to KD value with respect to KRAS) [1, 4]	HRAS/KRAS (ratio of KD value with respect to HRAS to KD value with respect to KRAS) [2, 5]	NRAS/KRAS (ratio of KD value with respect to GDP-bound NRAS wild-type protein to KD value with respect to KRAS) [1]	HRAS/KRAS (ratio of KD value with respect to GDP-bound HRAS wild-type protein to KD value with respect to KRAS) [2]
290 pM	–	CCCN(C)C(=O)[C@@H]1CC(=O)N(C)[C@@H](C(C)C)C(=O)N[C@@H]([C@@H](C)CC)C(=O)N(C)CC(=O)N(C)[C@H]2C/C=C\CCN(C2=O)[C@@H](Cc2ccc(C(F)(F)F)cc2)C(=O)N(C)CC(=O)N[C@@H](CCc2cc(F)c(C(F)(F)F)c(F)c2)C(=O)N2C[C@@H](C)C[C@H]2C(=O)NC2(CCC2)C(=O)N(C)[C@@H](C2CCCC2)C(=O)N1C [PP2079]	A (a compound having 10 or more and less than 20 is denoted as A)	A (a compound having 10 or more and less than 20 is denoted as A)	–	–	–	–
–	36 pM	CCO[C@@H]1C[C@H]2C(=O)NC3(CCCC3)C(=O)N(C)[C@@H](C3CCCC3)C(=O)N(C)[C@H](C(=O)N3CCOCC3)CC(=O)N(C)[C@@H](CC(C)C)C(=O)N[C@@H]([C@@H](C)CC)C(=O)N(C)CC(=O)N(C)[C@H]3CCCCN(C3=O)[C@@H](Cc3ccc(C(F)(F)F)cc3)C(=O)N(C)CC(=O)N[C@@H](CCc3cc(F)c(C(F)(F)F)c(F)c3)C(=O)N2C1 [PP0554]	–	–	B (a compound having 3 or more and less than 10 is denoted as B)	B (a compound having 3 or more and less than 10 is denoted as B)	–	–
3900 pM	–	CCO[C@@H]1C[C@H]2C(=O)NC3(CCC3)C(=O)N(C)[C@@H](C3CCCC3)C(=O)N(C)[C@H](C(=O)N(C)C)CC(=O)N(C)[C@@H](CC)C(=O)N[C@@H]([C@@H](C)CC)C(=O)N(C)[C@@H](C)C(=O)N(C)[C@H]3C/C=C\CCN(C3=O)[C@@H](Cc3ccc(C(F)(F)F)cc3)C(=O)N(C)CC(=O)N[C@@H](CCc3cc(F)c(C(F)(F)F)c(F)c3)C(=O)N2C1 [PP1054]	A (a compound having 10 or more and less than 20 is denoted as A)	B (a compound having 3 or more and less than 10 is denoted as B)	–	–	–	–
730 pM	–	CCO[C@@H]1C[C@H]2C(=O)NC3(CCCC3)C(=O)N(C)[C@@H](C3CCCC3)C(=O)N(C)[C@H](C(=O)N3CCOCC3)CC(=O)N(C)[C@@H](COC)C(=O)N[C@@H]([C@@H](C)CC)C(=O)N(C)CC(=O)N(C)[C@H]3CCCCCN(C3=O)[C@@H](Cc3ccc(C(F)(F)F)cc3)C(=O)N(C)CC(=O)N[C@@H](CCc3cc(F)c(C(F)(F)F)c(F)c3)C(=O)N2C1 [PP0841]	B (a compound having 3 or more and less than 10 is denoted as B)	B (a compound having 3 or more and less than 10 is denoted as B)	–	–	–	–
–	540 pM	CCC[C@H]1C(=O)N[C@@H]([C@@H](C)CC)C(=O)N(C)CC(=O)N(C)[C@H]2C/C=C\CCN(C2=O)[C@@H](Cc2ccc(C)cc2)C(=O)N(C)CC(=O)N[C@@H](CCc2ccc(Cl)c(OC)c2)C(=O)N2C[C@H](OCC)C[C@H]2C(=O)NC2(CC(C)(C)C2)C(=O)N(C)[C@@H](C2CCCC2)C(=O)N(C)[C@H](C(=O)N(C)C)CC(=O)N1C [PP2790]	–	–	–	–	A (a compound having 10 or more and less than 20 is denoted as A)	A (a compound having 10 or more and less than 20 is denoted as A)
–	870 pM	CCO[C@@H]1C[C@H]2C(=O)NC3(CCC3)C(=O)N(C)[C@@H](C3CCCC3)C(=O)N(C)[C@H](C(=O)N(C)C)CC(=O)N(C)[C@@H](CC3CCCC3)C(=O)N[C@@H]([C@@H](C)CC)C(=O)N(C)CC(=O)N(C)[C@H]3C/C=C\CCN(C3=O)[C@@H](Cc3ccc(C)cc3)C(=O)N(C)CC(=O)N[C@@H](CCc3cc(C)c(C(F)F)c(F)c3)C(=O)N2C1 [PP2676]	–	–	–	–	A (a compound having 10 or more and less than 20 is denoted as A)	A (a compound having 10 or more and less than 20 is denoted as A)
240 pM	–	CCO[C@@H]1C[C@H]2C(=O)NC3(CCCC3)C(=O)N(C)[C@@H](C3CCCC3)C(=O)N(C)[C@H](C)CC(=O)N(C)[C@@H](CC(C)C)C(=O)N[C@@H]([C@@H](C)CC)C(=O)N(C)CC(=O)N(C)[C@H]3C/C=C\CCN(C3=O)[C@@H](Cc3ccc(C(F)(F)F)cc3)C(=O)N(C)CC(=O)N[C@@H](CCc3cc(F)c(C(F)(F)F)c(F)c3)C(=O)N2C1 [PP1096]	B (a compound having 3 or more and less than 10 is denoted as B)	B (a compound having 3 or more and less than 10 is denoted as B)	–	–	–	–

Continued, compound first:

Structure (SMILES)	Kd ([3]; SPR, Single Cycle Kinetics)	Kd [3, 6]	NRAS/KRAS (ratio of KD value for NRAS to KD value for KRAS) [1, 4]	HRAS/KRAS (ratio of KD value for HRAS to KD value for KRAS) [2, 5]	NRAS/KRAS (ratio of KD value with respect to NRAS to KD value with respect to KRAS) [1, 4]	HRAS/KRAS (ratio of KD value with respect to HRAS to KD value with respect to KRAS) [2, 5]	NRAS/KRAS (ratio of KD value with respect to GDP-bound NRAS wild-type protein to KD value with respect to KRAS) [1]	HRAS/KRAS (ratio of KD value with respect to GDP-bound HRAS wild-type protein to KD value with respect to KRAS) [2]
CCC[C@H]1C(=O)N[C@@H]([C@@H](C)CC)C(=O)N2CCC[C@H]2C(=O)N(C)[C@H]2C/C=C\CCN(C2=O)[C@@H](Cc2ccc(C(F)(F)F)cc2)C(=O)N(C)CC(=O)N[C@@H](CCc2ccc(C(F)(F)F)c(OC)c2)C(=O)N2C[C@H](OCC)C[C@H]2C(=O)N(C)C2(CCC2)C(=O)N(C)[C@@H](C2CCCC2)C(=O)N(C)[C@H](C(=O)N(C)C)CC(=O)N1C [PP2320, (1S,4S,10S,13S,17S,20S,26S,28R,32S,38S,42Z)-20-cyclopentyl-28-ethoxy-32-[2-[3-methoxy-4-(trifluoromethyl)phenyl]ethyl]-N,N,2,14,18,21,24,36-octamethyl-10-[(1S)-1-methylpropyl]-3,9,12,15,19,22,25,31,34,37,45-undecaoxo-13-propyl-38-[[4-(trifluoromethyl)phenyl]methyl]spiro[2,8,11,14,18,21,24,30,33,36,39-undecazatetracyclo[37.5.1.0^4,8.0^26,30]pentatetracont-42-ene-23,1′-cyclobutane]-17-carboxamide]	110 pM	–	A (a compound having 10 or more and less than 20 is denoted as A)	A (a compound having 10 or more and less than 20 is denoted as A)	–	–	–	–
CC[C@H](C)[C@@H]1NC(=O)[C@H](CC(C)C)N(C)C(=O)C[C@@H](C(=O)N2CCOCC2)N(C)C(=O)[C@H](C2CCCC2)N(C)C(=O)C2(CCCC2)NC(=O)[C@@H]2CCCN2C(=O)[C@H](CCc2ccc(Cl)c(Cl)c2)NC(=O)CN(C)C(=O)[C@H](Cc2ccc(C(F)(F)F)cc2)N(CC)C(=O)CN(C)C(=O)CN(C)C1=O [PP0237] ([NMeL]I[Sar][Sar][NEtPhe(4-CF3)][Sar][hPhe(3,4-Cl2)]P[Ac5c][NMeGly(cPent)][NMeD]-Morpholide; lactam N-11)	–	280 pM	B (a compound having 3 or more and less than 10 is denoted as B)	C (A compound having a KD ratio of 0.1 or more and less than 3 is denoted as C)	–	–	–	–
CCCN1C(=O)CN(C)C(=O)CNC(=O)[C@H]([C@@H](C)CC)NC(=O)[C@H](CC(C)C)N(C)C(=O)C[C@@H](C(=O)N2CCOCC2)NC(=O)[C@H](C2CCCC2)N(C)C(=O)C2(CCC2)NC(=O)[C@@H]2CC(F)(F)CN2C(=O)[C@H](CCc2ccc(C(F)(F)F)c(Cl)c2)NC(=O)CN(C)C(=O)[C@@H]1Cc1ccc(C(F)(F)F)cc1 [PP0328] ([NMeL]IG[Sar][NPrPhe(4-CF3)][Sar][hPhe(3-Cl-4-CF3)][Pro(4,4-F2)][Ac4c][NMeGly(cPent)]D-Morpholide; lactam N-11)	–	1600 pM	B (a compound having 3 or more and less than 10 is denoted as B)	B (a compound having 3 or more and less than 10 is denoted as B)	–	–	–	–
CCO[C@@H]1C[C@H]2C(=O)NC3(CCC3)C(=O)N(C)[C@@H](C3CCCC3)C(=O)N(C)[C@H](C(=O)N3CCOCC3)CC(=O)N(C)[C@@H](CC)C(=O)N[C@@H]([C@@H](C)CC)C(=O)N3CC[C@H]3C(=O)N(C)[C@H]3C[C@@H](C)CCN(C3=O)[C@@H](Cc3ccc(C(F)(F)F)cc3)C(=O)N(C)CC(=O)N[C@@H](CCc3cc(F)c(C(F)(F)F)c(F)c3)C(=O)N2C1 [PP1028]	99 pM	–	B (a compound having 3 or more and less than 10 is denoted as B)	B (a compound having 3 or more and less than 10 is denoted as B)	–	–	–	–
CCCN1C(=O)CN(C)C(=O)[C@@H]2CCN2C(=O)[C@H]([C@@H](C)CC)NC(=O)[C@H](CC(C)C)N(C)C(=O)C[C@@H](C(=O)N2CCOCC2)N(C)C(=O)[C@H](C2CCCC2)N(C)C(=O)C2(CCCC2)NC(=O)[C@@H]2CC(F)(F)CCN2C(=O)[C@H](CCc2ccc(C(F)(F)F)c(Cl)c2)NC(=O)CN(C)C(=O)[C@@H]1Cc1ccc(C(F)(F)F)cc1 [PP0312] ([NMeL]I[Aze][Sar][NPrPhe(4-CF3)][Sar][hPhe(3-Cl-4-CF3)][Pip(4,4-F2)][Ac5c][NMeGly(cPent)][NMeD]-Morpholide; lactam N-11)	–	3400 pM	B (a compound having 3 or more and less than 10 is denoted as B)	B (a compound having 3 or more and less than 10 is denoted as B)	–	–	–	–
CCO[C@@H]1C[C@H]2C(=O)NC3(CC(C)(C)C3)C(=O)N(C)[C@@H](CC(C)(C)C)C(=O)N(C)[C@H](C(=O)N(C)C)CC(=O)N(C)[C@@H](C(C)C)C(=O)N[C@@H]([C@@H](C)CC)C(=O)N(C)CC(=O)N(C)[C@H]3C/C=C\CCN(C3=O)[C@@H](Cc3ccc(C(F)(F)F)cc3)C(=O)N(C)CC(=O)N[C@@H](CCc3ccc(C(F)(F)F)c(OC)c3)C(=O)N2C1 [PP2773]	–	520 pM	–	–	–	–	B (a compound having 3 or more and less than 10 is denoted as B)	B (a compound having 3 or more and less than 10 is denoted as B)
